Laboratory results published in patent publication US5153218A, “N,N',N'-trisubstituted-bis-amino-3-methylene-2,4(3H,5H)-furandione inhibitors of acyl-CoA:cholesterol-acyl transferase” (American Home Products Corporation, priority 1991, dated 1992).
Read-outs that look alike come from different tables or passages of the source.

What was measured:
[1] = system: 14C-Cholesterol Absorption; settings: po
Procedure: Representative compounds were further tested in vivo to establish the percent inhibition of cholesterol absorption. In this study, normal rats were dosed (oral gavage) with ^14 C-cholesterol plus the test compound. Blood samples taken at six hours and/or intermittently up to twenty-four hours were analyzed and the percent inhibition of cholesterol absorption was calculated.

[2] = system: acyl-coenzyme A: cholesterol acyltransferase; test: inhibition of acyl-coenzyme A: cholesterol acyltransferase in vitro (intracellular cholesterol esterification, procedure of Ross et al.); assay type: cell-based; settings: for percent inhibition at a single concentration: unit assumed
Description: The ability of the compounds of this invention to inhibit acyl-coenzyme A: cholesterol acyltransferase was established in vitro by initially showing that they inhibited intracellular cholesterol esterification by subjecting them to the standard experimental test procedure of Ross et al., J. Biol. Chem. 259 815 (1984).

Plasma Cholesterol = test: in vivo decrease of plasma cholesterol in cholesterol-cholic acid fed rats; settings: oral gavage, four days
Procedure: In addition, representative compounds were studied in vivo in cholesterol-cholic acid fed rats to determine the percent decrease of cholesterol in their plasma. This study involves rats which are, prior to testing, trained for one week to eat over a four hour time period each day. Upon initiation of the experiment, the rats diet is supplemented with 1.0 percent cholesterol and 0.25 percent cholic acid. The rats are dosed with the test compound by oral gavage just prior to and just following the four hour feeding period. This is repeated for four days. On the fifth day, the rats are sacrificed and the total plasma cholesterol content is determined. The percent decrease in elevated plasma cholesterol levels is calculated in comparison with normal-fed controls.

## CCCCCCCN(Cc1ccc(C(C)(C)C)cc1)C(Nc1ccc(F)cc1)=C1C(=O)COC1=O [Example 1, 3-[[[[4-(1,1-Dimethylethyl)phenyl]methyl]heptylamino][(4-fluorophenyl)amino]methylene]-2,4(3H,5H)-furandione]
[1]; 200 mg/kg
  % Inhibition of Absorption: -74%
[2]
  IC50: 6 µM
[2]; Conc. 50 mM (so in the source)
  percent inhibition at a single concentration: 96%

## CCCCCCN(CCCCCC)C(Nc1ccc(F)cc1)=C1C(=O)COC1=O [Example 2, 3-[(Dihexylamino)[(4-fluorophenyl)amino]methylene]-2,4(3H,5H)furandione]
[2]; Conc. 50 mM (so in the source)
  percent inhibition at a single concentration: 57%

## CCCCCCCN(Cc1ccc(C(C)(C)C)cc1)C(Nc1ccc(OC)cc1OC)=C1C(=O)COC1=O [Example 3]
[2]
  IC50: 4 µM
[2]; Conc. 50 mM (so in the source)
  percent inhibition at a single concentration: 90%

## CCCCCCCC/C=C\CCCCCCCCNC(Nc1ccc(OC)cc1OC)=C1C(=O)COC1=O [Example 4, 3-[[(2,4-Dimethoxyphenyl)amino]((Z)-9-octadecenylamino)methylene]-2,4(3H,5H)-furandione]
[1]; 200 mg/kg
  % Inhibition of Absorption: -14%
[2]; Conc. 50 mM (so in the source)
  percent inhibition at a single concentration: 63%

## CCCCCCCN(Cc1ccc(CC(C)(C)C)cc1)C(Nc1c(OC)cc(OC)cc1OC)=C1C(=O)COC1=O [Example 5, 3-[[[4-(2,2-Dimethylpropyl)phenylmethyl]heptylamino][(2,4,6-trimethoxyphenyl)amino]methylene]-2,4(3H,5H)-furandione]
[2]
  IC50: 11 µM
[2]; Conc. 25 mM (so in the source)
  percent inhibition at a single concentration: 67%

## CCCCCCCN(Cc1ccc(OCCC(C)C)cc1)C(Nc1ccc(OC)cc1OC)=C1C(=O)COC1=O [Example 6, 3-[[(2,4-Dimethoxyphenyl)amino][(heptyl)[[4-(3-methylbutoxy)phenyl]methyl]amino]methylene]-2,4(3H,5H)-furandione]
[2]
  IC50: 0.4 µM
[2]; Conc. 25 mM (so in the source)
  percent inhibition at a single concentration: 99%

## CCCCCC(C)N(Cc1ccc(CC(C)(C)C)cc1)C(Nc1ccc(OC)cc1OC)=C1C(=O)COC1=O (centres unmarked) [Example 7, 3-[[(2,4-Dimethoxyphenyl]amino][[[4-(2,2-dimethylpropyl)phenyl]methyl](1-methylhexyl)-amino]methylene]2,4(3H,5H)-furandione]
Plasma Cholesterol; 40 mg/kg
  % Decrease in Plasma Cholesterol: -26%
[1]; 20 mg/kg
  % Inhibition of Absorption: -62%
[2]
  IC50: 0.92 µM
[2]; Conc. 25 mM (so in the source)
  percent inhibition at a single concentration: 98%

## CCCCCC(C)N(Cc1ccc(CC(C)(C)C)cc1)C(Nc1cc(C(C)(C)C)c(O)c(C(C)(C)C)c1)=C1C(=O)COC1=O (centres unmarked) [Example 8]
Plasma Cholesterol; 20 mg/kg
  % Decrease in Plasma Cholesterol: -71%
[1]; 20 mg/kg
  % Inhibition of Absorption: -72%
[2]
  IC50: 0.19 µM
[2]; Conc. 25 mM (so in the source)
  percent inhibition at a single concentration: 99%

## CCCCCCN(CCCCCC)C(Nc1ccc(OC)cc1OC)=C1C(=O)COC1=O [Example 9, 3-[(Dihexylamino)[(2,4-dimethoxyphenyl)amino]methylene]-2,4(3H,5H)-furandione]
[2]
  IC50: 25 µM
[2]; Conc. 50 mM (so in the source)
  percent inhibition at a single concentration: 87%

## CCCCCCCC/C=C\CCCCCCCCNC(Nc1ccc(F)cc1)=C1C(=O)COC1=O [Example 10, 3-[[(4-Fluorophenyl)amino]((Z)-9-octadecenylamino)methylene]2,4(3H,5H)-furandione]
[2]
  IC50: > 30 µM
[2]; Conc. 50 mM (so in the source)
  percent inhibition at a single concentration: 61%

## COc1ccc(NC(=C2C(=O)COC2=O)N(CCc2ccccc2)Cc2ccccc2)c(OC)c1 [Example 11, 3-[[(2,4-Dimethoxyphenyl)amino][(2-phenylethyl)(phenylmethyl)amino]methylene]-2,4(3H,5H)-furandione]
[2]
  IC50: > 30 µM
[2]; Conc. 50 mM (so in the source)
  percent inhibition at a single concentration: 72%

## CCCCCCN(CCCCCC)C(Nc1ccc(-c2ccccc2)cc1)=C1C(=O)COC1=O [Example 12, 3-[([1,1'-Biphenyl]-4-ylamino)(dihexylamino)methylene]-2,4(3H,5H)-furandione]
[2]
  IC50: 27 µM
[2]; Conc. 50 mM (so in the source)
  percent inhibition at a single concentration: 90%

## CCCCCCCN(Cc1ccc(C(C)(C)C)cc1)C(Nc1ccc(-c2ccccc2)cc1)=C1C(=O)COC1=O [Example 13, 3-[([1,1'-Biphenyl]-4-ylamino)[[[4-(1,1-dimethylethyl)phenyl]methyl]heptylamino]methylene]-2,4(3H,5H)-furandione]
[2]
  IC50: 12 µM
[2]; Conc. 50 mM (so in the source)
  percent inhibition at a single concentration: 91%

## CCCCCCCN(Cc1ccc(C(C)(C)C)cc1)C(Nc1ccc(F)cc1F)=C1C(=O)COC1=O [Example 14, 3-[[(2,4-Difluorophenyl)amino][[[4-(1,1-dimethylethyl)phenyl]methyl]heptylamino]methylene]-2,4(3H,5H)-furandione]
[2]; Conc. 25 mM (so in the source)
  percent inhibition at a single concentration: 39%

## CCCCCCCN(Cc1ccc(C(C)(C)C)cc1)C(Nc1c(C)cc(C)cc1C)=C1C(=O)COC1=O [Example 15, 3-[[[[4-(1,1-Dimethylethyl)phenyl]methyl]heptylamino][(2,4,6-trimethylphenyl)amino]methylene]-2,4(3H,5H)-furandione]
[2]; Conc. 25 mM (so in the source)
  percent inhibition at a single concentration: 73%

## CCCCCCCN(Cc1ccc(CCCCCC)cc1)C(Nc1ccc(C(F)(F)F)cc1)=C1C(=O)COC1=O [Example 16, 3-[[Heptyl[(4-hexylphenyl)methyl]amino][[4-(trifluoromethyl)phenyl]amino]methylene]-2,4(3H,5H)-furandione]
[2]; Conc. 25 mM (so in the source)
  percent inhibition at a single concentration: 56%

## CCCCCCCN(Cc1ccc(C(C)(C)C)cc1)C(Nc1ccc(Cl)cc1)=C1C(=O)COC1=O [Example 17, 3-[[(4-Chlorophenyl)amino][[[4-(1,1-dimethylethyl)phenyl]methyl]heptylamino]methylene]-2,4(3H,5H)-furandione]
[2]
  IC50: 24 µM
[2]; Conc. 25 mM (so in the source)
  percent inhibition at a single concentration: 84%

## CCCCCCCC/C=C\CCCCCCCCN(Cc1ccc(C(C)(C)C)cc1)C(Nc1ccc(F)cc1)=C1C(=O)COC1=O [Example 18, 3-[[[[4-(1,1-Dimethylethyl)phenyl]methyl]((Z)-9-octadecenyl)amino][(4-fluorophenyl)amino]methylene]-2,4(3H,5H)-furandione]
[2]; Conc. 25 mM (so in the source)
  percent inhibition at a single concentration: 44%

## CCCCCCCN(Cc1ccc(C(C)(C)C)cc1)C(Nc1c(C)cc(N(C)C)cc1C)=C1C(=O)COC1=O [Example 19]
[2]
  IC50: 9.5 µM
[2]; Conc. 25 mM (so in the source)
  percent inhibition at a single concentration: 77%

## CCCCCC(C)N(Cc1ccc(C(C)(C)C)cc1)C(Nc1ccc(OC)cc1OC)=C1C(=O)COC1=O (centres unmarked) [Example 20, 3-[[(2,4-Dimethoxyphenyl)amino][[[4-(1,1-dimethylethyl)phenyl]methyl](1-methylhexyl)amino]methylene]-2,4(3H,5H)-furandione]
[2]
  IC50: 1.5 µM
[2]; Conc. 25 mM (so in the source)
  percent inhibition at a single concentration: 94%

## CCCCCC(C)N(Cc1ccc(OCCC(C)C)cc1)C(Nc1ccc(OC)cc1OC)=C1C(=O)COC1=O (centres unmarked) [Example 21, 3-[[(2,4-Dimethoxyphenyl)amino][[[4-(3-methylbutoxy)phenyl]methyl](1-methylhexyl)amino]methylene]-2,4(3H,5H)-furandione]
Plasma Cholesterol; 20 mg/kg
  % Decrease in Plasma Cholesterol: -23%
[2]
  IC50: 4.9 µM
[2]; Conc. 25 mM (so in the source)
  percent inhibition at a single concentration: 97%

## CCCCCCC(C)N(Cc1ccc(CC(C)(C)C)cc1)C(Nc1cc(C(C)(C)C)c(O)c(C(C)(C)C)c1)=C1C(=O)COC1=O (centres unmarked) [Example 22, 3-[[[3,5-Bis(1,1-dimethylethyl)-4-hydroxyphenyl]amino][[[4-(2,2-dimethylpropyl)phenyl]methyl](1-methylheptyl)amino]methylene]-2,4(3H,5H)-furandione]
Plasma Cholesterol; 20 mg/kg
  % Decrease in Plasma Cholesterol: -80%
[2]
  IC50: 0.07 µM
[2]; Conc. 25 mM (so in the source)
  percent inhibition at a single concentration: 97%

## CCCCCCN(Cc1ccc(CC(C)C)cc1)C(Nc1cc(C(C)(C)C)c(O)c(C(C)(C)C)c1)=C1C(=O)COC1=O [Example 23]
[2]; Conc. 25 mM (so in the source)
  percent inhibition at a single concentration: 88%
